Results: patent US9051280B2, “Tetraline and indane derivatives, pharmaceutical compositions containing them, and their use in therapy” (AbbVie Deutschland GmbH & Co. KG, priority 2010, dated 2015)

These molecules were tested against human GlyT1c transporter (Homo sapiens (Human), UniProt P48067) (assay: Radioligand binding assay using recombinant CHO cell membranes expressing human GlyT1). Details: read-out: radioligand binding Kiapp.
Chain of human GlyT1c transporter (P48067 whole entry): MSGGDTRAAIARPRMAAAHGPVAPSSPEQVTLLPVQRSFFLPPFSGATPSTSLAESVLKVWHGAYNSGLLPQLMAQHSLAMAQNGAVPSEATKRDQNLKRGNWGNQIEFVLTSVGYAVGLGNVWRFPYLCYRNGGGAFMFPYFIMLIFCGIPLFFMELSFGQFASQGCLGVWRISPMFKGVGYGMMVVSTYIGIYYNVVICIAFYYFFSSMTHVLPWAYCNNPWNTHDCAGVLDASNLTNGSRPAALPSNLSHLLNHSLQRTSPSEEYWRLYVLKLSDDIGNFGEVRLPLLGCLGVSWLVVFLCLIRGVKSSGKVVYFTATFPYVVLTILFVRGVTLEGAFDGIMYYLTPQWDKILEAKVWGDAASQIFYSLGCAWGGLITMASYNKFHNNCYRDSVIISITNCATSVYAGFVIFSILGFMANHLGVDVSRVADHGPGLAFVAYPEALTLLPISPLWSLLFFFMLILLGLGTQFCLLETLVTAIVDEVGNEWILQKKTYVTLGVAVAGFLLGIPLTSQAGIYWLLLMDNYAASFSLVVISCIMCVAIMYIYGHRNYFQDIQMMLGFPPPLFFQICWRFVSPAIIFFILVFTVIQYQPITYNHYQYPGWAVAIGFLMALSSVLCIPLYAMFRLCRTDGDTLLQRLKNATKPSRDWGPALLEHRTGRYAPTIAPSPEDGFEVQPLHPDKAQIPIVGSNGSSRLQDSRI
Method: Biological Testing • 1. [^3H]-Glycine uptake into recombinant CHO cells expressing human GlyT1: Human GlyT1c expressing recombinant hGlyT1c—5_CHO cells were plated at 20,000 cells per well in 96 well Cytostar-T scintillation microplates (Amersham Biosciences) and cultured to sub-confluency for 24 h. For glycine uptake assays the culture medium was aspirated and the cells were washed once with 100 μl HBSS (Gibco BRL, #14025-050) with 5 mM L-Alanine (Merck #1007). 80 μl HBSS buffer were added, followed by 10 μl inhibitor or vehicle (10% DMSO) and 10 μl [^3H]-glycine (TRK71, Amersham Biosciences) to a final concentration of 200 nM for initiation of glycine uptake. The plates were placed in a Wallac Microbeta (PerkinElmer) and continuously counted by solid phase scintillation spectrometry during up to 3 hours. Nonspecific uptake was determined in the presence of 10 μM Org24598. IC50 calculations were made by four-parametric logistic nonlinear regression analysis (GraphPad Prism) using determinations within the range of linear increase of [^3H]-glycine incorporation between 60 and 120 min. • 2. Radioligand binding assays using recombinant CHO cell membranes expressing human GlyT1:
Radioligand binding to human GlyT1c transporter-expressing membranes was determined as described in Mezler et al., Molecular Pharmacology 74:1705-1715, 2008.
For `CCS(=O)(=O)NCCOc1ccc2c(c1)[C@H](Cc1ccccc1)[C@H](CN)CC2` (stereo in doubt) [Example 195, Ethanesulfonic acid [2-(7-aminomethyl-8-benzyl-5,6,7,8-tetrahydro-naphthalen-2-yloxy)-ethyl]-amide], the Ki was ≤ 100 nM.
For `NC[C@@H]1CCc2ccc(OCCNS(=O)(=O)CC3CC3)cc2[C@@H]1Cc1ccccc1` (stereo in doubt) [Example 196, N-[2-(7-Aminomethyl-8-benzyl-5,6,7,8-tetrahydro-naphthalen-2-yloxy)-ethyl]-C-cyclopropyl-methanesulfonamide], the Ki was ≤ 100 nM.
With `CCS(=O)(=O)NCCOc1ccc2c(c1)[C@H](Cc1ccccc1)[C@H](CNC)CC2` (stereo in doubt) [Example 198, Ethanesulfonic acid [2-(8-benzyl-7-methylaminomethyl-5,6,7,8-tetrahydro-naphthalen-2-yloxy)-ethyl]-amide] the Ki was ≤ 100 nM.
For `CNC[C@@H]1CCc2ccc(OCCNS(=O)(=O)CC3CC3)cc2[C@@H]1Cc1ccccc1` (stereo in doubt) [Example 199, N-[2-(8-Benzyl-7-methylaminomethyl-5,6,7,8-tetrahydro-naphthalen-2-yloxy)-ethyl]-C-cyclopropyl-methanesulfonamide], the Ki was ≤ 100 nM.
With `CCS(=O)(=O)NCCOc1ccc2c(c1)[C@H](Cc1ccccc1)[C@H](CN1CCC1)CC2` (stereo in doubt) [Example 200, Ethanesulfonic acid [2-(7-azetidin-1-ylmethyl-8-benzyl-5,6,7,8-tetrahydro-naphthalen-2-yloxy)-ethyl]-amide] the Ki was ≤ 500 nM.
In the case of `O=S(=O)(CC1CC1)NCCOc1ccc2c(c1)[C@H](Cc1ccccc1)[C@H](CN1CCC1)CC2` (stereo in doubt) [Example 201, N-[2-(7-Azetidin-1-ylmethyl-8-benzyl-5,6,7,8-tetrahydro-naphthalen-2-yloxy)-ethyl]-C-cyclopropyl-methanesulfonamide], the Ki is reported as ≤ 100 nM.
In the case of `Cn1cnc(S(=O)(=O)NCCOc2ccc3c(c2)[C@H](Cc2ccccc2)[C@H](CN2CCC2)CC3)c1` (stereo in doubt) [Example 202, 1-Methyl-1H-imidazole-4-sulfonic acid [2-(7-azetidin-1-ylmethyl-8-benzyl-5,6,7,8-tetrahydro-naphthalen-2-yloxy)-ethyl]-amide], the Ki is reported as ≤ 100 nM.
For `Cn1cnc(S(=O)(=O)NCc2ccc3c(c2)[C@H](Cc2ccccc2)[C@H](CN2CCC2)CC3)c1` (stereo in doubt) [Example 203, 1-Methyl-1H-imidazole-4-sulfonic acid (7-azetidin-1-ylmethyl-8-benzyl-5,6,7,8-tetrahydro-naphthalen-2-ylmethyl)-amide], the Ki was ≤ 100 nM.
